Reference: patent US10501493B2, “Broad spectrum antibiotics” (priority 2011, dated 2019)
Converted amounts (≈) assume the structure as drawn. Like-named read-outs stand apart in the source and are kept apart here.

Columns and labels:
S. aureus SPase = target: T1, S. aureus SPase (Staphylococcus aureus, UniProt P0A070); test: Steady state binding constant (Kd) determination by fluorescence increase
T1 construct: Full length His-tagged S. aureus SPase protein was expressed similarly; His-tag; made in house; host or cells: E. coli BL21(DE3)
Procedure: (§1) Full length His-tagged E. coli SPase proteins were expressed in E. coli BL21(DE3) containing the plasmid pET23-lepB, P. A. Smith et al. Chem Biol 2010, 1223-1231. Briefly, saturated overnight cultures grown in 20 ml of Luria-Bertani medium supplemented with ampicillin were subcultures into 1.5 L of Luria-Bertani, and shaken at 37° C. until an optical density at 600 nm of 0.4-0.5 was achieved. Protein expression was induced with Isopropyl β-D-1-thiogalactopyranoside (ITPG) at a final concentration of […], and purified using nickel affinity chromatography. Full length His-tagged S. aureus SPase protein was expressed similarly from E. coli BL21(DE3) containing the plasmid pCDF1-SaSpsB or pCDF1-SaSpsB(P29S) and purified similarly to the E. coli protein with the following exceptions. SPase protein was solubilized using 300 mM NaCl, 20 mM Tris pH 8.06, 5 mM Imidazole, 10% glycerol, 1% Triton X-100, prior to purification in Ni-NTA Superflow resin and resin bound protein was washed in a similar buffer containing 1% Elugent in place of Triton X-100 prior to protein eluted in wash buffer supplemented with 300 mM imidazole. Protein purify was judged to exceed 95% by visual inspection of SDS-PAGE followed by Comassie staining. All protein concentrations were determined by BCA assay.
(§2) Steady state binding constants (Kds) of compounds were determined by measuring an increase in fluorescence (λex=280 nm, λem=405 nm) that occurs upon binding to E. coli or S. aureus SPase protein. Two-fold serial dilutions of compounds were prepared in 100% DMSO, and compounds were diluted into binding buffer consisting of 100 mM NaCl, 20 mM Tris-HCl pH 7.4, 1 mM EDTA, 1% n-octyl-3-glucopyranoside (Anatrace), and 10% glycerol, with the final DMSO concentration equal to 1%. 70 μl of the resulting solutions containing various concentrations of compound in binding buffer were aliquoted into triplicate wells of a black polystyrene 384-well plate. 5 μl of blank solution or E. coli or S. aureus protein at concentrations of 750 or 3750 nM respectively, were added to each set of wells for a given inhibitor concentration. Plates were incubated for 14 hours and fluorescence read on an EnVision Multilable plate reader (Perkin Elmer™). Differences in fluorescence values between wells with and without protein were determined and background corrected for protein auto fluorescence. The corrected fluorescence difference data was fit to the quadratic equilibrium binding curve using the non-linear regression analysis software Solver (Frontline Systems®) run in Excel 2010, (Microsoft®), using experimentally determined quantum efficiency constants to convert fluorescence into nanomoles of protein/compound complex.

E. coli SPase = target: T2, E. coli SPase (Escherichia coli, UniProt P00803); test: as above
T2 construct: Full length His-tagged E. coli SPase proteins were expressed in E. coli BL21(DE3); His-tag; made in house; host or cells: E. coli BL21(DE3)
Procedure: as §1, §2

S. pneumoniae D39 = test: In vitro antimicrobial activity, MIC by broth micro-dilution; assay type: cell-based; details: S. pneumoniae D39
S. aureus ATCC 29213 = test: as above; assay type: cell-based
[1] = tested on: S. epidermidis ATCC 12228; test: as above; assay type: cell-based
S. pneumoniae R800 = test: as above; assay type: cell-based
Procedure, shortened: (§3)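 CLSI broth micro-dilution MIC against two-fold serial compound dilutions. Inoculum came from colonies grown 24 h at 35° C. or 28° C., suspended in cation-adjusted Mueller Hinton broth at 1*10^7 CFU/ml, of which 5 μl was added per 100 μl well. LepB(P84L) is a proline-mutant SPase strain with heightened arylomycin susceptibility.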

[2] = tested on: E. coli MIG1655 LepB(P84L); test: as above; assay type: cell-based
Procedure, shortened: as §3

S. agalactiae COH-1 = test: as above; assay type: cell-based
S. agalactiae ATCC 13813 = test: as above; assay type: cell-based
[3] = tested on: S. aureus NCTC-8325 SpsB(P295); test: as above; assay type: cell-based
R. equi DSM 6939 = test: as above; assay type: cell-based
Procedure, shortened: as §3

[4] = tested on: S. epidermidis RP62A SpsIB(S29P); test: as above; assay type: cell-based
[5] = tested on: S. epidermidis RP62A SpsIB(S31P); test: as above; assay type: cell-based
[6] = tested on: P. aeruginosa PA01 LepB(P84L); test: as above; assay type: cell-based
Procedure, shortened: as §3

C. glutamicum DSM 44475 = test: as above; assay type: cell-based
S. epidermidis RP62A = test: as above; assay type: cell-based; details: S. epidermidis RP62A
S. pyogenes ATCC 19615 = test: as above; assay type: cell-based
S. pyogenes M15448 = test: as above; assay type: cell-based
Procedure, shortened: as §3

[7] = Streptococcus pneumoniae, read-out: MIC
[8] = Staphylococcus aureus, ATCC29213, read-out: MIC
[9] = Staphylococcus epidermidis, ATCC12228, read-out: MIC
[10] = Streptococcus agalactiae, COH1, S. agalactiae COH-1, read-out: MIC
[11] = Streptococcus agalactiae, ATCC13813, read-out: MIC
[12] = Staphylococcus aureus, NCTC8325
[13] = Corynebacterium glutamicum, DSM44475, read-out: MIC
[14] = Staphylococcus epidermidis, read-out: MIC
[15] = Streptococcus pyogenes, ATCC19615, read-out: MIC
[16] = Streptococcus pyogenes, S. pyogenes M15448, read-out: MIC

SMILES | Kd (S. aureus SPase) | Kd (E. coli SPase) | MIC (S. pneumoniae D39; [7]) | MIC (S. aureus ATCC 29213; [8]) | MIC [1, 9] | MIC (S. pneumoniae R800; [7]) | MIC ([2]; Escherichia coli) | MIC (S. agalactiae COH-1; [10]) | MIC (S. agalactiae ATCC 13813; [11]) | MIC [3, 12] | MIC ([4]; Staphylococcus epidermidis) | MIC ([5]; Staphylococcus epidermidis) | MIC ([6]; Pseudomonas aeruginosa) | MIC (C. glutamicum DSM 44475; [13]) | MIC (S. epidermidis RP62A; [14]) | MIC (S. pyogenes ATCC 19615; [15]) | MIC (S. pyogenes M15448; [16]) | further results
CCCCCCCCCCCCCCCC(=O)N(C)[C@H](CO)C(=O)N[C@H](C)C(=O)NCC(=O)N(C)[C@@H]1C(=O)N[C@@H](C)C(=O)N[C@H](C(=O)NCC(=O)O)Cc2ccc(O)c(c2)-c2cc1ccc2O [Compound 24] | 2900 nM | 1100 nM | 4 µg/mL (≈ 4.26 µM) | > 64 µg/mL | 32 µg/mL (≈ 34.1 µM) | 8 µg/mL (≈ 8.53 µM) | 4 µg/mL (≈ 4.26 µM) | > 64 µg/mL | 64 µg/mL (≈ 68.2 µM) | 32 µg/mL (≈ 34.1 µM) | > 64 µg/mL | > 64 µg/mL | 32 µg/mL (≈ 34.1 µM) | 64 µg/mL (≈ 68.2 µM) | 2 µg/mL (≈ 2.13 µM) | 8 µg/mL (≈ 8.53 µM) | 16 µg/mL (≈ 17.1 µM) | MIC (R. equi DSM 6939; Rhodococcus (subgen. Prescottella) equi, DSM6939, read-out: MIC): > 64 µg/mL
CCCCCCCCCCCCCCCC(=O)N(C)[C@H](CO)C(=O)N[C@H](C)C(=O)NCC(=O)N(C)[C@@H]1C(=O)N[C@@H](C)C(=O)N[C@H](C(=O)N[C@H](C)C(=O)O)Cc2ccc(O)c(c2)-c2cc1ccc2O [Compound 19] | 18000 nM | 2800 nM | 16 µg/mL (≈ 16.8 µM) | > 64 µg/mL | 32 µg/mL (≈ 33.6 µM) | 32 µg/mL (≈ 33.6 µM) | 8 µg/mL (≈ 8.4 µM) | – | 32 µg/mL (≈ 33.6 µM) | > 64 µg/mL | > 64 µg/mL | > 64 µg/mL | > 64 µg/mL | 16 µg/mL (≈ 16.8 µM) | 8 µg/mL (≈ 8.4 µM) | 16 µg/mL (≈ 16.8 µM) | – | MIC (S. agalactiae COH-1; Streptococcus agalactiae, COH1): > 64 µg/mL; MIC (S. pyogenes M15448; Streptococcus pyogenes, M15448): 32 µg/mL (≈ 33.6 µM)
CCCCCCCCCCCCCCCC(=O)N(C)[C@H](CO)C(=O)N[C@H](C)C(=O)NCC(=O)N(C)[C@@H]1C(=O)N[C@@H](C)C(=O)N[C@H](C(=O)N[C@@H](C)C(N)=O)Cc2ccc(O)c(c2)-c2cc1ccc2O [Compound 15] | 2000 nM | 5800 nM | 8 µg/mL (≈ 8.41 µM) | > 64 µg/mL | > 64 µg/mL | 16 µg/mL (≈ 16.8 µM) | 8 µg/mL (≈ 8.41 µM) | > 64 µg/mL | > 64 µg/mL | 8 µg/mL (≈ 8.41 µM) | > 64 µg/mL | > 64 µg/mL | > 64 µg/mL | > 64 µg/mL | 2 µg/mL (≈ 2.1 µM) | 16 µg/mL (≈ 16.8 µM) | 16 µg/mL (≈ 16.8 µM) | –
CCCCCCCCCCCCCCCC(=O)N(C)[C@H](CO)C(=O)N[C@H](C)C(=O)NCC(=O)N(C)[C@@H]1C(=O)N[C@@H](C)C(=O)N[C@H](C(=O)N[C@@H](C)C(=O)NS(C)(=O)=O)Cc2ccc(O)c(c2)-c2cc1ccc2O [Compound 23] | – | – | – | – | – | – | – | – | – | – | – | – | – | – | – | – | – | Kd (S. aureus SPase; in vitro equilibrium Kd, read-out: Kd S. aureus SPase): 8900 nM; Kd (E. coli SPase; in vitro equilibrium Kd, read-out: Kd E. coli SPase): 3000 nM; MIC (S. pneumoniae D39): 8 µg/mL (≈ 7.77 µM); MIC (S. aureus ATCC 29213): >64 µg/mL; MIC [1]: 8 µg/mL (≈ 7.77 µM); MIC (S. pneumoniae R800): 8 µg/mL (≈ 7.77 µM); MIC ([2]; E. coli MIG1655 LepB(P84L)): 8 µg/mL (≈ 7.77 µM); MIC (S. agalactiae COH-1; S. agalactiae COH-1): >64 µg/mL; MIC (S. agalactiae ATCC 13813): 32 µg/mL (≈ 31.1 µM); MIC ([3]; S. aureus NCTC-8325 SpsB(P295)): 8 µg/mL (≈ 7.77 µM); MIC (R. equi DSM 6939): >64 µg/mL; MIC ([4]; S. epidermidis RP62A SpsIB(S29P)): 16 µg/mL (≈ 15.5 µM); MIC ([5]; S. epidermidis RP62A SpsIB(S31P)): >64 µg/mL; MIC ([6]; P. aeruginosa PA01 LepB(P84L)): >64 µg/mL; MIC (C. glutamicum DSM 44475): 8 µg/mL (≈ 7.77 µM); MIC (S. epidermidis RP62A): 2 µg/mL (≈ 1.94 µM); MIC (S. pyogenes ATCC 19615): 16 µg/mL (≈ 15.5 µM); MIC (S. pyogenes M15448; S. pyogenes M15448): 16 µg/mL (≈ 15.5 µM)
